These are literature values, as cited in patent US12324827B2, “Combination therapy for the treatment of migraines” (The University of Chicago, priority 2019, dated 2025).

In series [1] the test system is trigeminal system neurons. The note with it: in vivo; cited from earlier work.
The subject of series [2] is spreading depression. Particulars: SD from KCl; pretreatment; cited from earlier work.

For the compound “TEV-48125: CGRP-mAb fremanezumab, humanized monoclonal anti-CGRP antibody”, in series [1], the “CSD-based activation of Aδ fibers and C-fiber afferents in the trigeminal ganglion” value was “reduce CSD-based activation of Aδ fibers but not activation of C-fiber afferents”; the “activation and sensitization of high threshold trigeminal system neurons after CSD” value is “inhibited activation and sensitization”; the “direct inhibition of CSD” value is given as “did not directly inhibit CSD”; the “wide dynamic range neurons of the caudal trigeminal nucleus” value is reported as “had no effect”.
Turning to `CC1(C)O[C@@H]2[C@@H](CO[C@@]3(COS(N)(=O)=O)OC(C)(C)O[C@@H]23)O1` [topiramate, reference compound], the “protection against SD over sham treatment” value in series [2] is “no more than a two-fold level of protection”.
